One block for each molecule: values may come before it.
How the values were obtained:
[1] = target: RBP‐N/RBP‐Trunc mixed heterodimer (first generation) (Thermotoga maritima) (UniProt Q9X053); assay: SEC-MALS; single purified proteins, and RBP‐N and RBP‐Trunc purified one by one and mixed in an equimolar ratio; Superdex 75 Increase 10/300 GL, 10 mM sodium phosphate, 50 mM sodium chloride, 0.02% sodium azide, pH 7.8, room temperature, 0.8 mL min^-1
[2] = target: T1, RBP-NN-His/RBP-TruncIIN-Strep co-expressed heterodimer (Thermotoga maritima, UniProt Q9X053); assay: differential scanning calorimetry; type: binding; conditions: 10 mM sodium phosphate, 50 mM NaCl, pH 7.8; 50 μM protein, 0.5 mM ribose; irreversible unfolding; possible residual ribose carried over
T1 construct: gene TM_0958; halves co-expressed in E. coli BL21(DE3); N-terminal His6 tag on RBP-N (border also printed as 153), N-terminal Strep-tag on RBP-TruncII
T1 sequence (Q9X053 entry or part of it, one chain of several): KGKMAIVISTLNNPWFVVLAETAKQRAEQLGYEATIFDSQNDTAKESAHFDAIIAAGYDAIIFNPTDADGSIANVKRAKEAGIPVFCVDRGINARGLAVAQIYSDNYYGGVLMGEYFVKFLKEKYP

[3] = target: T2, RBP-N/RBP-Trunc mixed heterodimer (Thermotoga maritima, UniProt Q9X053); assay: isothermal titration calorimetry; type: binding; conditions: 10 mM sodium phosphate, 50 mM NaCl, pH 7.8, 20°C; 100 μM protein; 1:1 model
T2 construct: gene TM_0958; separately expressed halves mixed equimolar in vitro; E. coli BL21(DE3); His tag likely; dimer of heterodimers
T2 sequence (Q9X053 entry or part of it, one chain of several): as above

[4] = target: T3, RBP-NN-His/RBP-CN-Strep co-expressed heterodimer (Thermotoga maritima, UniProt Q9X053); assay: differential scanning calorimetry; type: binding; conditions: 10 mM sodium phosphate, 50 mM NaCl, pH 7.8; 50 μM protein, 0.5 mM ribose; irreversible unfolding
T3 construct: gene TM_0958; halves co-expressed in E. coli BL21(DE3); N-terminal His6 tag on RBP-N (border also printed as 153), N-terminal Strep-tag on RBP-C; lacks C-terminal cross-over strands; oligomeric state not determined
T3 sequence (Q9X053 entry or part of it, one chain of several): as above

[5] = target: T2, RBP-N/RBP-Trunc mixed heterodimer; assay: differential scanning calorimetry; type: binding; conditions: 10 mM sodium phosphate, 50 mM NaCl, pH 7.8; 50 μM protein, 0.5 mM ribose; irreversible unfolding
[6] = target: the molecule itself; assay: SEC-MALS; single purified proteins, and RBP‐N and RBP‐Trunc purified one by one and mixed in an equimolar ratio; Superdex 75 Increase 10/300 GL, 10 mM sodium phosphate, 50 mM sodium chloride, 0.02% sodium azide, pH 7.8, room temperature, 0.8 mL min^-1

- stoichiometry N [1]: 2
Molecule: RBP‐N/RBP‐Trunc mixed heterodimer (first generation) (from UniProt Q9X053 30-153; Q9X053 142-310) (complex)

- dTm [2]: 9.1 °C
- Kd [3]: 6.8 ± 0.7 µM
- dTm [4]: 15.1 °C
- dTm [5]: ~ 14 °C
Molecule: OC1OC[C@@H](O)[C@@H](O)[C@H]1O (stereo partly drawn) [ribose]

B1: RBP‐Trunc (truncated T. maritima RBP, residues 142–310, first generation) (domain or fragment, Thermotoga maritima, UniProt Q9X053 142-310, looked up)
chain: MGEYFVKFLKEKYPDAKEIPYAELLGILSAQPTWDRSNGFHSVVDQYPEFKMVAQQSAEFDRDTAYKVTEQILQAHPEIKAIWCGNDAMALGAMKACEAAGRTDIYIFGFDGAEDVINAIKEGKQIVATIMQFPKLMARLAVEWADQYLRGERSFPEIVPVTVELVTRE
notes: also called RPB‐Trunc
- stoichiometry N [6]: 2
